Experiments:
[1] = molecular target: T1, human ATR/ATRIP (Homo sapiens, UniProt Q13535); test: ATR/ATRIP kinase assay; assay type: biochemical
T1 construct: human ATR, full length, GenBank ID: NM_001184.3; host or cells: mammalian cell line (ATR/ATRIP co-expressed); Sf21 insect cells (p53)
Procedure: The IC50 value was determined by an ATR/ATRIP enzymatic assay. The assay comprises two steps: the enzymatic reaction and the detection step. First, a mixture of ATR/ATRIP protein (Ataxia Telangiectasia and Rad3-related protein/ATR interacting protein), the compound in question at different concentrations, p53 as substrate protein and adenosine triphosphate (ATP) are incubated in assay buffer. ATR phosphorylates p53 at Ser15 and other residues. The amount of phosphorylated p53 is then detected using specific antibodies and the TR-FRET assay technology.
In detail: The ATR/ATRIP enzymatic assay is performed as a TR-FRET-(HTRF™, Cisbio Bioassays) based 384-well assay. In a first step, purified human recombinant ATR/ATRIP (human ATR, full length, GenBank ID: NM_001184.3, and human ATRIP, full length, GenBank ID AF451323.1, co-expressed in a mammalian cell line) is incubated in assay buffer for 15 minutes at 22° C. with test compound at different concentrations or without test compound (as a negative control). The assay buffer contains 25 mM HEPES pH 8.0, 10 mM Mg(CH3COO)2, 1 mM MnCl2, 0.1% BSA, 0.01% Brij® 35, and 5 mM dithiothreitol (DTT). […] The generation of phosphorylated p53 as a result of the ATR mediated reaction in the presence of ATP is detected by using specific antibodies [labeled with the fluorophores europium (Eu) as donor and d2 as acceptor (Cisbio Bioassays)] enabling FRET. […] Following signal development for 2 h the plates are analyzed in an EnVision (PerkinElmer) microplate reader using the TRF mode with laser excitation. Upon excitation of the donor europium at 340 nm the emitted fluorescence light of the acceptor d2 at 665 nm as well as from the donor Eu at 615 nm are measured. The amount of phosphorylated p53 is directly proportional to the ratio of the amounts of emitted light i.e. the ratio of the relative fluorescence units (rfu) at 665 nm and 615 nm. […] In particular, IC50 values are determined in the usual manner by fitting a dose-response curve to the data points using nonlinear regression analysis.

[2] = Microsomal stability (intrinsic clearance), rat; assay type: in vitro ADME; conditions: for microsomal CLint: liver microsomes
Source text: A microsomal stability assay is used to measure in vitro clearance (Clint). The assay involves measuring the rate of disappearance of a compound due to its intrinsic attitude to be metabolized (“intrinsic” meaning that the disappearance is not affected by other properties like permeability, binding etc. that play a role when quantifying in vivo clearance). The microsomal stability (intrinsic clearance, Clint) and, thus, metabolic stability is generally given as μl/min/mg protein. It can be visualized as the volume of solution that 1 mg of microsomes is able to clear of the compound in one minute. The microsomal/metabolic stability of each compound was determined by measurement of the change in LC-MS/MS peak area over time. Data are fitted according to a log linear model in line with Michaelis/Menten. The Clint value is calculated from the slope (k) of the linear log transformed concentration per time plot divided by the amount of microsomes (0.5 mg/ml): Clint (μl/min/mg protein)=k*1000/protein concentration. Assay Explorer software was used to automatically calculate the slope k of the decline.

[3] = test system: pDNA-PK (Cellular mechanistic DNA-PK, HCT-116); test: pDNA-PK cellular assay; assay type: cell-based, human; conditions: HCT-116, 10 μM bleomycin
Procedure: HCT116 cells are cultured in MEM alpha medium with 10% fetal calf serum and 2 mM glutamine at 37° C. and 10% CO2. The cells were detached from the bottom of the culture vessels using trypsin/EDTA, centrifuged in centrifuge tubes, taken up in fresh medium and the cell density was determined. 100,000 cells were seeded in 1 ml of culture medium per well of a 24-well cell culture plate and cultured overnight. The next day, 10 μM bleomycin (DNA intercalator and DNA double-strand breaker inducer) and the test substances in fresh culture medium were added to the cells and cultured for a further six hours. Cell lysis was then performed and the cell lysates were spotted on a 96-well ELISA plate (Sigma-Aldrich WH0005591M2: total DNA-PK, Abcam ab18192 or Epitomics EM09912: phospho-serine 2056 DNA-PK), which was blocked and coated with DNA-PK specific antibody, and incubated at 4° C. overnight. Subsequently, the 96-well ELISA plates were treated with a detection antibody (Abcam ab79444: total DNA-PK) and a streptavidin-HRP conjugate. The development of the enzymatic reaction was carried out using a chemiluminescent reagent, the chemiluminescence was measured using the Mithras LB940. The signals with the phospho-DNA-PK specific antibody were normalized to the signal with the antibody against the whole protein DNA-PKc. […] The DMSO control was used as blank.

T1 sequence (Q13535 whole entry): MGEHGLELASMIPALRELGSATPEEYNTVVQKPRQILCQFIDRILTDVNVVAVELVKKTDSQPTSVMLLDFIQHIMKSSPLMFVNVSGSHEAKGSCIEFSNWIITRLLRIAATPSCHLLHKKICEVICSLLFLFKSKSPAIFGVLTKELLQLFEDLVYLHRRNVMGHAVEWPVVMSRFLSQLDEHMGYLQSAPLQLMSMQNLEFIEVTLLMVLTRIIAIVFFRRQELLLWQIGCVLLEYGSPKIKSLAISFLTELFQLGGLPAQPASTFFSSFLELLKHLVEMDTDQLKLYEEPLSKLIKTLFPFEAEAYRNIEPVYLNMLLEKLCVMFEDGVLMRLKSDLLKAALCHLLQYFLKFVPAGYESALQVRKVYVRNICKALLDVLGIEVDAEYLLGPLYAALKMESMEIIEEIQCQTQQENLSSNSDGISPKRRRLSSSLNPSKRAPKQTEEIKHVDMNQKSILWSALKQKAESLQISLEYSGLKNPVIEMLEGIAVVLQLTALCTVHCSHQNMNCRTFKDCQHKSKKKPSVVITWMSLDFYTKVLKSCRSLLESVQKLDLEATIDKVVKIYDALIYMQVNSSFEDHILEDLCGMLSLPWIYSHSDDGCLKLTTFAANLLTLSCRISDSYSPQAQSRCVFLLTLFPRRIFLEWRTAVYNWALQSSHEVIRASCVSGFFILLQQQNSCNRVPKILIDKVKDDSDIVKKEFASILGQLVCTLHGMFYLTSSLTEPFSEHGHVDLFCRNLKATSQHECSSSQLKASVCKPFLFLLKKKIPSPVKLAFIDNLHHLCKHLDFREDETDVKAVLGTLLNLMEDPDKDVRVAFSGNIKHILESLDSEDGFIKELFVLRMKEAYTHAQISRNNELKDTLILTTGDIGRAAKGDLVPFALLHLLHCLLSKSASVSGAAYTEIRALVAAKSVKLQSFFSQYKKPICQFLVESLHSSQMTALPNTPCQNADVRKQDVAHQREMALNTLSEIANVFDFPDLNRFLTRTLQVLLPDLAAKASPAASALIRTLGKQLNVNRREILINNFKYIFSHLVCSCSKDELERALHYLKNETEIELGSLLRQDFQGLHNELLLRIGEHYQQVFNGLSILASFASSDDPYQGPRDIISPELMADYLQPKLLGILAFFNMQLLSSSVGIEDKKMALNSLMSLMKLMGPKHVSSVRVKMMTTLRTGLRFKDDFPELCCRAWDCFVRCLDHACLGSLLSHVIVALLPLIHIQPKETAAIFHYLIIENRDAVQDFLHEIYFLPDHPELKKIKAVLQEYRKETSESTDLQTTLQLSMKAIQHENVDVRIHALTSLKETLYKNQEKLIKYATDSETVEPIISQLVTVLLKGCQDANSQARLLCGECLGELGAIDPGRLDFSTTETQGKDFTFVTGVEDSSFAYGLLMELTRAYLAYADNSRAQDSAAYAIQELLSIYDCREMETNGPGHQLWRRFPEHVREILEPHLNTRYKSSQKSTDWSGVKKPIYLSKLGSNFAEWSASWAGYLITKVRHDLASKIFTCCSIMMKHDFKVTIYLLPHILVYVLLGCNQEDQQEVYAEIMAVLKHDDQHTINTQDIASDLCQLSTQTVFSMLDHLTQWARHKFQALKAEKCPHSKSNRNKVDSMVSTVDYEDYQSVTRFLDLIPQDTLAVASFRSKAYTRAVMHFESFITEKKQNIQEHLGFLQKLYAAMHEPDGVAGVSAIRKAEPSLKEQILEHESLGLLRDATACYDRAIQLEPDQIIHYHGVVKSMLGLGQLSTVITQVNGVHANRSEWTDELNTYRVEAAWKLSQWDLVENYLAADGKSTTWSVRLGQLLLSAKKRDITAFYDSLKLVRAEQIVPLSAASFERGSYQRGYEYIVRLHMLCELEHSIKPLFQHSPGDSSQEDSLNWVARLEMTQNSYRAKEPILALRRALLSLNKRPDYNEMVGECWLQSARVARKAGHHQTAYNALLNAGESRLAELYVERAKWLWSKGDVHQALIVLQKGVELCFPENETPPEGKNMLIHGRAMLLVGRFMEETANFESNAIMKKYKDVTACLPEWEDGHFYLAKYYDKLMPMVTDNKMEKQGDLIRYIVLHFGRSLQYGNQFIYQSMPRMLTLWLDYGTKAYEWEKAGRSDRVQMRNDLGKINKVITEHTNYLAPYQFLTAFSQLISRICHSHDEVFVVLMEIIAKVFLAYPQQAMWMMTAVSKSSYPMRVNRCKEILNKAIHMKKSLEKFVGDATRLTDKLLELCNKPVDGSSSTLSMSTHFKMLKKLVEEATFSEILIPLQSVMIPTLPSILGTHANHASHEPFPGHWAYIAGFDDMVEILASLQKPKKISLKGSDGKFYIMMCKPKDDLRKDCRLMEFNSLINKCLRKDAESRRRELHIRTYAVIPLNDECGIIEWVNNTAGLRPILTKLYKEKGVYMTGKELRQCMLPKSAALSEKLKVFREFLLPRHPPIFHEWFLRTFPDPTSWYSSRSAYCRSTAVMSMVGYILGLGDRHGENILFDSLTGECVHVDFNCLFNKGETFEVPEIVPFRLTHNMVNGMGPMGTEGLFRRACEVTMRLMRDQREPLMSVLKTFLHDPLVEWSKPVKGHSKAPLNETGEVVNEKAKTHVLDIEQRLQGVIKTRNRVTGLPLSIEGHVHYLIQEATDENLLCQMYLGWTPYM
T1 sequence (Q8WXE1 whole entry partner): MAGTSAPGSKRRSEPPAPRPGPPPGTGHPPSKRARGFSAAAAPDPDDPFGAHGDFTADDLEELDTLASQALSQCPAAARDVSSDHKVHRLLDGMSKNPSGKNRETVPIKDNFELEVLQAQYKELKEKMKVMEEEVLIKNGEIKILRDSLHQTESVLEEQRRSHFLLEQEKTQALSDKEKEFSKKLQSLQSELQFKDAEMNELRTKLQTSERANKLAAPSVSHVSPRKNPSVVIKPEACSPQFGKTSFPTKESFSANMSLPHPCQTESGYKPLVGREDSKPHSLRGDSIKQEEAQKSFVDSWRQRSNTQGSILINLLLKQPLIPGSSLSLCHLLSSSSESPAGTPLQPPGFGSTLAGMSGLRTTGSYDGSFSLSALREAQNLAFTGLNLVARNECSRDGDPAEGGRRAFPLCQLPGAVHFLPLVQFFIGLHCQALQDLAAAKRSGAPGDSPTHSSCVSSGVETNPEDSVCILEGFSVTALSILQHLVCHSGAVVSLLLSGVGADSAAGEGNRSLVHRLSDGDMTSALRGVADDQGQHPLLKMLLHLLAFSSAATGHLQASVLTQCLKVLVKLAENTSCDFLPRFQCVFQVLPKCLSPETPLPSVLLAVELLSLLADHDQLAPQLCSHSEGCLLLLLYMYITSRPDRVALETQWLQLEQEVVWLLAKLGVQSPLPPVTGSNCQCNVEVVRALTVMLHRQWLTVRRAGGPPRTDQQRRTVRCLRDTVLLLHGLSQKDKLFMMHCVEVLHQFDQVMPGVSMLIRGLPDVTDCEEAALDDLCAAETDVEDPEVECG

SMILES | IC50 [1] | microsomal CLint [2] | IC50 ([3]; Homo sapiens) | CLint (rat) ([2]; rat microsomes) | IC50 [3]
COc1cc2ncc3c(c2cc1-c1cn(C)nc1C)n(-c1c(F)cncc1OC)c(=O)n3C (single isomer, unassigned) [Compound 1, 8-(1,3-Dimethyl-1H-pyrazol-4-yl)-1-(Sa)-(3-fluoro-5-methoxy-pyridin-4-yl)-7-methoxy-3-methyl-1,3-dihydro-imidazo[4,5-c]quinolin-2-one] | 10 µM | < 10 µL/min/mg | > 30 µM |  | 
COc1cc2ncc3c(c2cc1-c1cn(C)nc1C)n(-c1c(F)cncc1OC)c(=O)n3C (single isomer, unassigned) [Compound 2, 8-(1,3-Dimethyl-1H-pyrazol-4-yl)-1-(Ra)-(3-fluoro-5-methoxy-pyridin-4-yl)-7-methoxy-3-methyl-1,3-dihydro-imidazo[4,5-c]quinolin-2-one] | > 28 µM |  |  | < 10 μl/min/mg protein | > 30 µM
COc1cc2ncc3c(c2cc1-c1cn(C)nc1C)n(-c1c(F)cncc1OC)c(=O)n3C [Compound Y, 8-(1,3-dimethyl-1H-pyrazol-4-yl)-1-(3-fluoro-5-methoxypyridin-4-yl)-7-methoxy-3-methyl-1,3-dihydroimidazo[4,5-c]quinolin-2-one, reference compound] | 5.06 µM | 19 µL/min/mg | > 30 µM |  | 
